The source of these data is paper PMC10350920, “Development of a 2,4-Diaminothiazole Series for the Treatment of Human African Trypanosomiasis Highlights the Importance of Static–Cidal Screening of Analogues” (Journal of Medicinal Chemistry, 2023).

Data set [1] can be described thus: Mouse brain penetration (brain:blood ratio). The class given is in vivo, female NMRI mice. Conditions: female, NMRI, mouse, brain and blood, 10 mg kg^–1; mice, bolus of test compound, total compound; read-out: brain/blood (B/B) ratio. The procedure: Medicines for HAT are required to treat both acute and chronic infections, where parasites pass through the blood/brain barrier and enter the CNS. With this in mind, mice were dosed with an […] bolus of our test compounds, and compound concentrations in blood and brain were determined by UPLC–MS/MS. […] The brain fraction unbound was 0.0063 for 16 and 0.0313 for 38. Brain penetration of the series as a whole tracked with the generally accepted rules of CNS penetration, with a lower topological PSA (TPSA) and molecular weight compounds having an increased B/B ratio (Table S2 and Figure S1). However, the link between log P and the B/B ratio was slightly less convincing. […] This difference could be explained by 18 being a substrate for the P-glycoprotein efflux pump.
Each compound was dosed as an IV bolus at 10 mg kg^–1 dissolved in 15% solutol/Milli-Q (dose volume 10 mL kg^–1) to female NMRI mice (n = 3). At 30 min following the IV bolus of the test compound, mice (n = 3/time point) were placed under terminal anesthesia with isoflurane. A blood sample was taken by cardiac puncture and added to two volumes of distilled water, and the brain was removed. […] For each mouse at each time point, the concentration in the brain (ng g^–1) was divided by the concentration in blood (ng mL^–1) to give a brain: blood ratio.

Data set [2] in a line: Human microsomal intrinsic clearance. The class given is in vitro ADME. Particulars: second value of mouse/human cell.
Data set [3] concerns BSF T. b. brucei “single marker” S427. Nature of the data set: Drug sensitivity assay with bloodstream-form T. brucei. The class given is cell-based. Particulars: for EC50: Trypanosoma brucei, mean values, number of replicates in parentheses. As for the experimental part: (§1) Drug sensitivity assays with BSF T. b. brucei “single marker” S427 and human MRC-5 fibroblasts were conducted as previously described.[43]

Data set [4] is described as follows: Mammalian cell counter screen (MRC-5). Conditions: human, MRC-5 fibroblasts; mean values; number of replicates in parentheses. It counts as cell-based, human. The procedure: as §1
(The purpose of a counterscreen is to sort out artefacts and off-target activity.)

A further data set relates to human MRC-5 fibroblasts. Nature of the data set: Mammalian cell counter screen (MRC-5). The class given is cell-based. Conditions: for SI: selectivity index (EC50 MRC5/EC50 T. brucei). As for the experimental part: as §1
Data set [5] can be described thus: Mouse liver microsomal intrinsic clearance. It counts as in vitro ADME. As for the experimental part: Test compounds (0.5 μM) were incubated with female CD1 mouse liver microsomes (Xenotech LLC; 0.5 mg mL^–1 50 mM potassium phosphate buffer, pH 7.4), and the reaction started with the addition of excess NADPH (8 mg mL^–1 50 mM potassium phosphate buffer, pH 7.4). Immediately, at 0 min, and then at 3, 6, 9, 15, and 30 min, an aliquot (50 μL) of the incubation mixture was removed and mixed with acetonitrile (100 μL) to stop the reaction. The internal standard was added to all samples, the samples were centrifuged to sediment the precipitated protein, and the plates were then sealed prior to UPLC–MS/MS analysis using a Quattro Premier XE (Waters Corporation, USA). XLfit (IDBS, UK) was used to calculate the exponential decay and consequently the rate constant (k) from the ratio of the peak area of the test compound to the internal standard at each time point. The rate of intrinsic clearance (CLint) of each test compound was then calculated using the following calculation [drawing 3] where V (mL mg^–1 protein) is the incubation volume mg^–1 protein added and the microsomal protein yield is taken as 52.5 mg protein g^–1 liver. Verapamil (0.5 μM) was used as a positive control to confirm acceptable assay performance.
For orientation: Liver microsomes are a subcellular fraction often used to study metabolism.

The nature of data set [6]: Equilibrium dialysis, free fraction in plasma. Conditions: CD1, mouse, plasma, pH 7.4; matrix not given; read-out: Fu (free fraction). It counts as in vitro ADME, mouse. As for the experimental part:
In brief, a 96-well equilibrium dialysis apparatus was used to determine the free fraction in plasma and the brain (HT Dialysis LLC, Gales Ferry, CT). Isotonic buffer was prepared using 8.69 g of Na2HPO4, 1.9 g of KH2PO4, and 4.11 g of NaCl dissolved in 1 L of Milli-Q water, and the pH was adjusted to 7.4. Artificial CSF was prepared using 3.652 g of NaCl, 93.2 mg of KCl, 119.96 mg of MgCl2, 92.61 mg of CaCl2, and 268 mg of Na2HPO4 heptahydrate dissolved in 0.5 L of water, and the pH was adjusted to 7.4. Membranes [12–14 (plasma) or 6–9 (brain) kDA cutoff] were conditioned in deionized water for 60 min, followed by conditioning in 80:20 deionized water/ethanol for 20 min, and then rinsed in isotonic buffer (plasma) or […] (brain) before use. Female CD1 mouse plasma was defrosted and centrifuged for 10 min at 3000 rpm (Allegra X12-R, Beckman Coulter, USA). The control mouse brain was homogenized in two volumes of artificial CSF in a Covaris S2 acoustic homogenizer. Plasma or brain homogenate was spiked with the test compound (10 μg mL^–1), and 150 μL aliquots (n = 3 replicate determinations) were loaded into the 96-well equilibrium dialysis plate. Dialysis versus 150 μL of isotonic buffer (plasma) or artificial CSF (brain) was carried out for 5 h in a temperature-controlled incubator at 37 °C (Barworld Scientific Ltd, UK) using an orbital microplate shaker at 125 rpm (Barworld Scientific Ltd, UK). At the end of the incubation period, aliquots of plasma/homogenized brain or buffer were transferred to a clean 96-well plate, and the composition in each well was balanced with control fluid, such that the volume of buffer to the matrix was the same. Sample extraction was performed by the addition of 400 μL of acetonitrile containing an appropriate internal standard. Samples were allowed to mix for 1 min and then centrifuged at 3000 rpm in 96-well blocks for 10 min (Allegra X12-R, Beckman Coulter, USA). All samples were analyzed by means of UPLC/MS/MS on a Quattro Premier XE or Micro TQs mass spectrometer (Waters Corporation, USA). The unbound fraction was determined as the ratio of the peak area in the buffer to that in the matrix.
(In general: In equilibrium dialysis free small molecules cross a membrane that holds back macromolecules.)

The nature of data set [7]: Rat microsomal intrinsic clearance. It counts as in vitro ADME. Particulars: second value of mouse/rat cell.

With `CC(C)CC(=O)c1sc(Nc2ccc(F)c(F)c2)nc1N` [Compound 37, 1-(4-Amino-2-((3,4-difluorophenyl)amino)thiazol-5-yl)-3-methylbutan-1-one], the Kp at 30 min in data set [1] came to 4.7. In addition, the “CLint (human)” value in data set [2] amounted to 3.2 mL·min/g. Further, the values for the EC50 in data set [3] and in data set [4] were 200 nM and greater than 50 µM, respectively. The SI in the data set on human MRC-5 fibroblasts is greater than 250. Besides, the “CLint (mouse)” value in data set [5] was 5.9 mL·min/g.
As for `Nc1nc(N[C@H]2CC[C@H](O)CC2)sc1C(=O)c1c(F)cccc1F` [Compound 16A], the EC50 in data set [3] is 360 nM. Moreover, in data set [6], the fraction unbound at 5 h, 10 μg mL^–1 amounted to 0.39.
In the case of `Nc1nc(NC2CCCC(O)C2)sc1C(=O)c1c(F)cccc1F` (centres unmarked) [Compound 16B], the EC50 in data set [3] is 948 nM. Also, the fraction unbound at 5 h, 10 μg mL^–1 in data set [6] was 0.22. For the same compound, in data set [5], the “CLint (mouse)” value amounted to 1.8 mL·min/g.
Turning to `Nc1nc(Nc2ccccc2)sc1C(=O)c1ccccc1` [Compound 34, (4-Amino-2-(phenylamino)thiazol-5-yl)(phenyl)methanone], the “CLint (human)” value in data set [2] is less than 0.5 mL·min/g. In addition, the EC50 in data set [3] turned out to be 160 nM. The EC50 in data set [4] was 11 µM. In the data set with human MRC-5 fibroblasts, the “selectivity over MRC-5 cell line” value is roughly 100 fold and the SI is 69. The “CLint (mouse)” value in data set [5] was found to be 12 mL·min/g.
As for `Nc1nc(Nc2ccc(F)c(F)c2)sc1C(=O)CN1CCCC(F)(F)C1` [Compound 67, 1-(4-Amino-2-((3,4-difluorophenyl)amino)thiazol-5-yl)-2-(3,3-difluoropiperidin-1-yl)ethanone], the “CLint (rat)” value in data set [7] was 20 mL·min/g. Moreover, the EC50 in data set [3] came out at 20 nM; in data set [4], 5 µM. The same compound displayed an SI in the data set with human MRC-5 fibroblasts of 250. Also, the “CLint (mouse)” value in data set [5] is 33 mL·min/g.
In the same order, the values of `Nc1nc(Nc2ccc(F)c(F)c2)sc1C(=O)CN1CCCC1` [Compound 58, 1-(4-Amino-2-((3,4-difluorophenyl)amino)thiazol-5-yl)-2-(pyrrolidin-1-yl)ethanone] are 2.2 mL·min/g, 90 nM, 48 µM, 533 and 2.1 mL·min/g.
As for `CC(OCC(=O)c1sc(Nc2ccc(F)c(F)c2)nc1N)C(F)(F)F` (centres unmarked) [Compound 50, 1-(4-Amino-2-((3,4-difluorophenyl)amino)thiazol-5-yl)-2-((1,1,1-trifluoropropan-2-yl)oxy)ethanone], the “CLint (rat)” value in data set [7] turned out to be 2.9 mL·min/g. Further, the EC50 was 6 nM in data set [3] and greater than 50 µM in data set [4]. For the same compound, the SI with human MRC-5 fibroblasts is listed as 8333. Moreover, in data set [5], the “CLint (mouse)” value amounted to 7.4 mL·min/g.
Regarding `CC(C)OCC(=O)c1sc(Nc2ccc(F)c(F)c2)nc1N` [Compound 42, 1-(4-Amino-2-((3,4-difluorophenyl)amino)thiazol-5-yl)-2-isopropoxyethanone], the “CLint (rat)” value in data set [7] stood at 3.6 mL·min/g. Besides, the “improvement in activity against T. brucei relative to parent analogue” value in data set [3] (SAR comparison) is 10 fold. For the same compound, the EC50 is 20 nM in data set [3] and greater than 50 µM in data set [4]. Moreover, the SI with human MRC-5 fibroblasts worked out at 2500. In addition, the “CLint (mouse)” value in data set [5] turned out to be 9.3 mL·min/g.
`Nc1nc(Nc2ccc(F)c(F)c2)sc1C(=O)CN1CCCC1C(F)(F)F` (centres unmarked) [Compound 60, 1-(4-Amino-2-((3,4-difluorophenyl)amino)thiazol-5-yl)-2-(2-(trifluoromethyl)pyrrolidin-1-yl)ethanone]: the “CLint (rat)” value in data set [7] amounted to 10 mL·min/g. In addition, the half-maximal effective concentration (EC50) in data set [3] is 20 nM; in data set [4] it was 32 µM. Besides, the SI with human MRC-5 fibroblasts came out at 1600. Also, in data set [5], the “CLint (mouse)” value was found to be 26 mL·min/g.
For the compound `Nc1nc(Nc2ccc(F)c(F)c2)sc1C(=O)CN1C[C@H]2CC[C@@H](C1)O2` [Compound 66, 1-(4-Amino-2-((3,4-difluorophenyl)amino)thiazol-5-yl)-2-((1R,5S)-8-oxa-3-azabicyclo[3.2.1]octan-3-yl)ethanone], the “CLint (rat)” value in data set [7] was determined as 15.1 mL·min/g. For the same compound, the concentration giving a half-maximal response (EC50) was 110 nM in data set [3] and greater than 50 µM in data set [4]. Besides, the SI with human MRC-5 fibroblasts is listed as 455. For the same compound, the “CLint (mouse)” value in data set [5] came out at 8.8 mL·min/g.
Consider `CC(OCC(=O)c1sc(Nc2ccc(Cl)cc2)nc1N)C(F)(F)F` (centres unmarked) [Compound 51, 1-(4-Amino-2-((4-chlorophenyl)amino)thiazol-5-yl)-2-((1,1,1-trifluoropropan-2-yl)oxy)ethanone], for which the Kp at 30 min in data set [1] is 0.9. The “CLint (rat)” value in data set [7] was found to be 1.7 mL·min/g. In addition, the EC50 is 8 nM in data set [3] and greater than 50 µM in data set [4]. The compound also yielded an SI in the data set on human MRC-5 fibroblasts of 6250. Further, in data set [5], the “CLint (mouse)” value came out at 5.3 mL·min/g.
For `Nc1nc(Nc2ccc(F)c(F)c2)sc1C(=O)CN1CCC(F)(F)CC1` [Compound 68, 1-(4-Amino-2-((3,4-difluorophenyl)amino)thiazol-5-yl)-2-(4,4-difluoropiperidin-1-yl)ethanone], the “CLint (rat)” value in data set [7] was 11 mL·min/g. For the same compound, the concentration for a half-maximal effect (EC50) in data set [3] worked out at 20 nM; in data set [4] it was 47 µM. Further, the SI in the data set on human MRC-5 fibroblasts was 2350. For the same compound, the “CLint (mouse)” value in data set [5] stood at 9.3 mL·min/g.
On to `Nc1nc(Nc2ccc(F)c(F)c2)sc1C(=O)CN1C[C@@H]2C[C@H]1CO2` [Compound 65, 1-(4-Amino-2-((3,4-difluorophenyl)amino)thiazol-5-yl)-2-((1S,4S)-2-oxa-5-azabicyclo[2.2.1]heptan-5-yl)ethanone], for which the “CLint (rat)” value in data set [7] is 4.9 mL·min/g. For the same compound, the EC50 in data set [3] is 40 nM; in data set [4], greater than 50 µM. For the same compound, the SI with human MRC-5 fibroblasts is 1250. The “CLint (mouse)” value in data set [5] amounted to 4.1 mL·min/g.
For `Nc1nc(Nc2ccc(F)c(F)c2)sc1C(=O)CN1CCCCC1` [Compound 61, 1-(4-Amino-2-((3,4-difluorophenyl)amino)thiazol-5-yl)-2-(piperidin-1-yl)ethanone] the same measures were 6.7 mL·min/g, 60 nM, 49 µM, 816 and 7.7 mL·min/g.
On to `CC(C)C(=O)c1sc(NC2CCCCC2)nc1N` [Compound 18, 1-(4-Amino-2-(cyclohexylamino)thiazol-5-yl)-2-methylpropan-1-one], for which the Kp at 30 min in data set [1] came to 0.06. Further, the EC50 in data set [3] was 2400 nM; in data set [4], 10 µM. Further, in the data set with human MRC-5 fibroblasts, the SI is on record as 4. In addition, in data set [5], the “CLint (mouse)” value was 0.5 mL·min/g.

The term EC50 denotes the concentration needed to bring the measured effect to its halfway point.
